From patent US8518968B2, “Hydrazone and diacyl hydrazine compounds and methods of use” (The United States of America, as represented by the …, priority 2009, dated 2013)
Where two headings read alike, the source gives them in different places.

Key:
[1] = test system: heat shock protein Hsp70; assay: Avidin bead pull-down of Hsp70 with immobilized B-NFC; format: binding; conditions: avidin beads
[2] = test system: JEKO-1 cells; assay: cells; conditions: Homo sapiens, JeKo-1, 48 h, JEKO-1 cells, incubated 2 days, MTT, four parameter logistic fit
[3] = target: T1, p97 (Homo sapiens, UniProt P55072); assay: Avidin bead pull-down of p97 with immobilized B-NFC; format: binding; conditions: monomeric avidin beads, biotin beads as negative control
T1 sequence (P55072 whole entry): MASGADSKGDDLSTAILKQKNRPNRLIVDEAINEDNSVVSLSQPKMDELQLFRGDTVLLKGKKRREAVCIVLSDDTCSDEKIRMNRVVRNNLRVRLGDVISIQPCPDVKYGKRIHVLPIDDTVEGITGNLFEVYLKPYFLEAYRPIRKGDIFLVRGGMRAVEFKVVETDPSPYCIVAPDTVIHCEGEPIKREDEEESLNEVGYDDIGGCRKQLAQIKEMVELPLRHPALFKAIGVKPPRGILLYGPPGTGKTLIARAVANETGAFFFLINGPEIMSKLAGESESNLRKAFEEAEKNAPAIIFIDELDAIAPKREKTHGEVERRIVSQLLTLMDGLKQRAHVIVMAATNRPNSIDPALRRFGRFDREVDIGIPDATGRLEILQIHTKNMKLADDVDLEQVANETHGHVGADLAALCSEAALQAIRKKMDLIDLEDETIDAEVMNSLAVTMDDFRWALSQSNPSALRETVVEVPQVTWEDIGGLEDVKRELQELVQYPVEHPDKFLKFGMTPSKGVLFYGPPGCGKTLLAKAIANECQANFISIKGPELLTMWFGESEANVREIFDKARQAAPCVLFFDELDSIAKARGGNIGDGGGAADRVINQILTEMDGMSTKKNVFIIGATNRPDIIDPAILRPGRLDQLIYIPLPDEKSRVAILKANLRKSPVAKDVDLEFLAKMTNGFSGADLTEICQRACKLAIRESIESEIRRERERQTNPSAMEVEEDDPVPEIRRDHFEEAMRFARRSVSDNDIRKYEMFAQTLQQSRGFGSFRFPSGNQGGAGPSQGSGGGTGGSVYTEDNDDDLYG

[4] = target: N-ethylmaleimide-sensitive factor (NSF) (Homo sapiens, UniProt P46459); assay: Avidin bead pull-down of NSF with immobilized B-NFC; format: binding; conditions: avidin beads
Chain of N-ethylmaleimide-sensitive factor (NSF) (P46459 whole entry, species assumed): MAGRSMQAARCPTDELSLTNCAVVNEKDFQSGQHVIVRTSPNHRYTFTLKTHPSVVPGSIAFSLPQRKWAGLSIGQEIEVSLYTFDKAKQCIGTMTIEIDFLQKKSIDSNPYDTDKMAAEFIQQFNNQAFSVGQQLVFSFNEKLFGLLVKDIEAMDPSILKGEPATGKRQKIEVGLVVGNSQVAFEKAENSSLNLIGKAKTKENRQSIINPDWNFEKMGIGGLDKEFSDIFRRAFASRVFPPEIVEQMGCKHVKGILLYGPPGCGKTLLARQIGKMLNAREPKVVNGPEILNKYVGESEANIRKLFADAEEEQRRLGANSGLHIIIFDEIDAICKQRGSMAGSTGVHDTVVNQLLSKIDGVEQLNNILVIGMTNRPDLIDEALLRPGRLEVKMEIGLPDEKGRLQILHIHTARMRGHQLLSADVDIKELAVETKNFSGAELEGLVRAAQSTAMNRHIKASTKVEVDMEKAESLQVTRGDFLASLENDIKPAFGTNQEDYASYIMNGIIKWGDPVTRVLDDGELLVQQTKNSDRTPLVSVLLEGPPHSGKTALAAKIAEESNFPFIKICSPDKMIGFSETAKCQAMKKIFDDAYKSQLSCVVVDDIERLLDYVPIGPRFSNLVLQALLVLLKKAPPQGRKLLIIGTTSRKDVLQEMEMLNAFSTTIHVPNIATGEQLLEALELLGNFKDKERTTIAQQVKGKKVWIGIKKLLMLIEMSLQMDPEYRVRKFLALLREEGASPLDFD

[5] = test system: CLL cells; assay: Synergy of CBU-028 with bortezomib against CLL cells (MTT); format: cell-based; conditions: fixed molar relation 1:2000 (BZM:CBU-028), 48 hours
Description: FIG. 6. […] To test for synergy between BZM and CBU-028, CLL cells were incubated in-vitro to increasing concentrations of each compound individually as well as to a combination of both drugs. The combination was tested at a fixed molar relation of 1:2000, e.g. 4 nM BZM was combined with 8 uM CBU-028. 5×10^6 cells/mL were incubated for 48 hours and cell viability was measured with MTT. Synergy is found where the effect of the combination of the two compounds exceeds the additive effect of each compound separately. The left graph shown the result of a representative experiment (CLL—4235) across all concentrations tested. The graph on the right summarizes the data for 7 individual CLL patients.

[6] = test system: JEKO-1 cells stably transfected with shRNAs to luciferase or NOXA; assay: Effect of NOXA shRNA on cytotoxicity in JEKO-1 cells (MTT); format: cell-based; conditions: JEKO-1 shLuc vs shNoxa, 24 hours
Description: The effect of NOXA on cytotoxicity of CBU-028, EERI, or bortezomib is determined. FIG. 4 presents graphs comparing CBU-028, EERI, and bortezomib with respect to percent cell viability as a function of concentration, measured using JEKO-1 cells stably transfected with shRNAs to luciferase (shLuc, control, ▪) or NOXA (shNoxa, ◯, sequence: [NT]) after treatment with the compound for 24 hrs, with viability determined with MTT as described above and normalized to the untreated control.

[7] = test system: TCRα-YFP; assay: Stabilization of ERAD substrate TCRα-YFP in 293T cells; format: cell-based; conditions: 293T cells stably expressing TCRα-YFP, 10 μM (10 mM in method), 10 h
Description: 293T cells stably expressing TCRα-YFP are treated with the indicated compounds ([…]) or as a control with DMSO for 10 h. Cells are lysed in RIPA buffer (50 mM Tris, pH 7.5, 1% NP40, 0.1% SDS, 0.5% sodium deoxycholate, 150 mM sodium chloride, 2 mM EDTA and a protease inhibitor cocktail). TCRα-YFP is immunoprecipitated from the cell extract using an anti-green fluorescent protein (GFP) antibody. The precipitated material is analyzed by SDS-PAGE and immunoblotting with antibodies against uUb and GFP. The whole cell extracts are also analyzed by SDS-PAGE and immunoblotting with antibodies against p. 97.

[8] = test system: primary chronic lymphocytic leukemia (CLL) cells or normal peripheral blood mononuclear cells (PBMC); assay: Cytotoxic activity against primary cells (MTT); format: cell-based; conditions: 5×10e6 cells/ml, 48 hrs
Description: The cytotoxic activity of CBU-028 or EERI against primary cells is determined as a function of concentration. Cell viability of primary chronic lymphocytic leukemia (CLL) cells or normal peripheral blood mononuclear cells (PBMC) at a concentration of 5×10e6 cells/ml is determined after treatment with CBU-028 or EERI for 48 hrs in triplicates. Viability is determined using the MTT assay, as described previously, with data normalized to the untreated control.

[9] = test system: GFPμ; assay: Stabilization of soluble p97 substrate GFPμ in 293T cells; format: cell-based; conditions: 10 μM
Description: The experiments are performed as described above for TCRα-YFP, except that 293 T cells stably expressing GFP are used.

[10] = test system: ATF3, ATF4, NOXA; assay: Immunoblot of ER stress markers, NOXA, ubiquitin and histone H2A in JEKO-1 cells; format: cell-based; conditions: for expression level of ATF3, ATF4 and NOXA: 8 hrs
[11] = test system: 293T cells; assay: Whole genome array gene expression in 293T cells; format: cell-based, human; conditions: 10 μM, 10 h
Description: To further confirm that both EerI and 5-NA can influence p97 function in cells, the gene expression pattern of EerI-treated cells is compared to that of 5-NA-treated cells using whole genome array hybridization. […] These studies are performed in 293T cells because they are highly transfectable, making them well suited for genetic manipulation by siRNA. Cells were treated with EerI, CBU-028, or 5-NA each at 10 μM in duplicates for 10 h. Total RNA was extracted using TRIzol reagent (Invitrogen, Carlsbad, Calif.), and subsequently purified using an RNeasy MinElute Cleanup kit (QIAGEN, Valencia, Calif.). For array hybridization, RNA samples were processed and analyzed by The National Institute of Diabetes and Digestive and Kidney Diseases (NIDDK) Microarray Core Facility. The Affymetrix gene expression analysis array for the human HG-U133A—2—0 was used (Affymetrix). The microarray signals were analyzed using the Affymetrix RMA algorithm. […] To determine specific pathways, gene pathway analysis were conducted using software from Genego, Inc., using the statistical significant ANOVA gene list (p<0.05, fold change >1.5) represented on the chip. Microarray data is MIAME compliant and that the raw data has been deposited in the Gene Expression Omnibus (GEO) database (accession no. GSE23849).

[12] = test system: p97 mutants (p97ΔN, p97ΔD2); assay: Avidin bead pull-down of p97 mutants with immobilized B-NFC; format: binding; conditions: p97ΔN or p97ΔD2, avidin beads
Chain of p97 mutants (p97ΔN, p97ΔD2) (P55072 209-458 limits assumed, stated change not applied): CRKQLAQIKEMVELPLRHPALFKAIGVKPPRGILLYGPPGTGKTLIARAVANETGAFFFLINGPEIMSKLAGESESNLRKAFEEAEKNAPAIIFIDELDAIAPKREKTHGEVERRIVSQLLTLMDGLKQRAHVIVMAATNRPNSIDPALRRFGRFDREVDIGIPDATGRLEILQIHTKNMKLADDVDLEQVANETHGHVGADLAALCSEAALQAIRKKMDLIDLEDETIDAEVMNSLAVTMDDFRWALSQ

[13] = test system: JEKO-1 cells
[14] = target: T2, recombinant wild type p97 (Homo sapiens, UniProt P55072); assay: Surface plasmon resonance binding to recombinant p97; conditions: SPR, 25° C., recombinant p97 purified from E. coli; read-out: estimated Kd
T2 construct: made in house; host or cells: E. coli
T2 sequence (P55072 whole entry): as the sequence (P55072 whole entry) above
Description: The strength of EerI binding to recombinant p97 purified from E. coli was tested using surface plasma resonance (SPR). Surface plasmon resonance interaction experiments were carried out at 25° C. on a Biacore T100 system (GE healthcare). […] Briefly, the carboxymethyl group of dextran was activated with N-ethyl-N′-(3-dimethylaminopropyl)carbodiimide (EDC) and N-hydroxysuccinimide (NHS). Then, p97 in a 10 mM sodium acetate (pH 4.5) buffer was injected at a flow rate of 10 μl/min with 2 min contact time and immobilized at a level of ˜8,000 RU. Any remaining reactive sites in the flow cell were blocked by ethanolamine. The drug association and dissociation were monitored at a flow rate of […] with the analyte concentration ranging from 3.125 μM to 50 μM in a buffer containing 10 mM HEPES (pH 7.4), 150 mM NaCl, 0.005% v/v Surfactant P20. Regeneration of the chip was achieved by extended washing with the analyte buffer. SPR signal was normalized using a reference flow cell containing no p97. […] The Rmax was then calculated, and the binding relative to the Rmax from three independent experiments was averaged. […]
The affinity of CBU-028, EERI, and compound 5138380 to purified p97 is measured by surface plasmon resonance (SPR). […] Association and dissociation of the compounds are monitored at a flow rate of 20 μL/min at concentrations ranging from 1.6 μM to 100 μM. […]

[15] = target: T3, membrane associated p97 (Homo sapiens, UniProt P55072); assay: Membrane/cytosol fractionation and p97 immunoblot in 293T cells; format: cell-based; conditions: 10 μM, 6 hr, membrane and cytosol fractions
T3 construct: endogenous in cells; host or cells: 293T cells
T3 sequence (P55072 2-806 limits assumed): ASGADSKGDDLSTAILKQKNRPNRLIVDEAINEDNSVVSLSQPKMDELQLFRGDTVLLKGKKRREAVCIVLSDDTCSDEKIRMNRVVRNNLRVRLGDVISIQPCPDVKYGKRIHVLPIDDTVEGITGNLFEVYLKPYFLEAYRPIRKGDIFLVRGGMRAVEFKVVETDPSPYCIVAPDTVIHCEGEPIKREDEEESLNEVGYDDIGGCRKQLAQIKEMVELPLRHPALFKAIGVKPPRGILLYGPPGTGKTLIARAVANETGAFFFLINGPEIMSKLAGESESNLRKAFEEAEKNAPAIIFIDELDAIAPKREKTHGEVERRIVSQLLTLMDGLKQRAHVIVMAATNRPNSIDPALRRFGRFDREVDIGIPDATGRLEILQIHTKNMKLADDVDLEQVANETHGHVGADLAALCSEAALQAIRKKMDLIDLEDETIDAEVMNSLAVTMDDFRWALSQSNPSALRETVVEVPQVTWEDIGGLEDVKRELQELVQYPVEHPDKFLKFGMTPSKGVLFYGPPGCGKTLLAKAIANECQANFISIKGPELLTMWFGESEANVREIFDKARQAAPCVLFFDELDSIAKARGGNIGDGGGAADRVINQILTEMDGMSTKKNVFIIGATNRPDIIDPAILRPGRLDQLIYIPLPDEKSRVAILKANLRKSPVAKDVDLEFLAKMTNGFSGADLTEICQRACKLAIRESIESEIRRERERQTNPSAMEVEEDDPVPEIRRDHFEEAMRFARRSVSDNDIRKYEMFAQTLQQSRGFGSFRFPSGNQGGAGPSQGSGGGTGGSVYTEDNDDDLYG
Description: Cells were fractionated into membrane and cytosol fractions. Proteins extracted from these fractions were analyzed by immunoblotting with antibodies to p97, E1, and Sec61β, and ER-resident protein as shown in FIG. 2 e.

[16] = target: p97 ATPase (Homo sapiens, UniProt P55072); assay: In vitro ATPase activity of p97; format: biochemical; conditions: data not shown
Chain of p97 ATPase (P55072 whole entry): as the sequence (P55072 whole entry) above
Description: To understand how EerI binding might affect p97 function, in vitro ATPase activity of p97 in the presence of EerI was measured. No effect of EerI on the p97 ATPase activity was found (data not shown).

[17] = target: T1, p97; assay: Limited trypsin digestion of purified p97; conditions: purified p97 pre-incubated with compound
Description: Sensitivity of p97 to limited trypsin digestion in the presence and absence of EerI was tested to determine whether binding of EerI to p97 could alter p97 conformation. The purified p97 protein (1.5 μg) was incubated at in a buffer containing 200 ng trypsin in 50 μl volume. Samples were taken out at different time points and mixed with the Laemmli buffer before SDS-PAGE and silver staining analyses.

O=C(CCCC[C@@H]1SCC2NC(=O)NC21)N/N=C/C=C/c1ccc([N+](=O)[O-])o1 (stereo partly drawn) [CBU-032, (E)-N′-((E)-3-(5-nitrofuran-2-yl)allylidene)-5-((4S)-2-oxohexahydro-1H-thieno[3,4-d]imidazol-4-yl)pentanehydrazide]
binding of Hsp70 to immobilized compound [1]: neither the heat shock protein Hsp70, nor the homologous AAA ATPase, N-ethylmaleimide-sensitive factor (NSF), showed significant binding | IC50 [2]: 25 µM | precipitation of p97 by immobilized compound [3]: consistently precipitated more p97, than biotin | binding of NSF to immobilized compound [4]: neither the heat shock protein Hsp70, nor the homologous AAA ATPase, N-ethylmaleimide-sensitive factor (NSF), showed significant binding

O=C(N/N=C/C=C/c1ccc([N+](=O)[O-])o1)c1cc2ccccc2cc1O [CBU-028, (E)-3-hydroxy-N′-((E)-3-(5-nitrofuran-2-yl)allylidene)-2-naphthohydrazide]
synergy with bortezomib [5]: Synergizes with Bortezomib | requirement of NOXA for cytotoxicity [6]: Noxa is equally required | IC50 [2]: 3 µM | stabilization of ERAD substrate TCRα-YFP [7]: stabilize the ERAD substrate TCRα-YFP in polyubiquitinated forms | sensitivity of PBMC compared with CLL cells [8]: PBMC are less sensitive | stabilization of soluble p97 substrate GFPμ [9]: stabilize the soluble p97 substrate GFPμ in polyubiquitinated forms | NOXA protein level ([10]; 10 μM, time course): upregulates NOXA protein level | expression of ER stress markers ATF3 and ATF4 ([10]; 10 μM, time course): induces expression of the ER stress markers ATF3 and ATF4 | polyubiquitinated proteins ([10]; 10 μM, time course): causes accumulation of polyubiquitinated proteins | ubiquitinated histone H2A ([10]; 10 μM, time course): downregulates ubiquitinated histone H2A

5-nitrofuryl-acrolein
number of genes up- or down-regulated by at least 2-fold by both EerI and 5-NA [11]: 29 genes | number of genes up- or down-regulated by at least 2-fold only by this compound [11]: 306 genes | binding of p97 mutants to immobilized compound [12]: also bound | cell viability / cytotoxic activity (in words) [13]: cytotoxic activity at a concentration lower than that shown by EERI | expression level of ATF3, ATF4 and NOXA ([10]; 2.5 μM): comparable to that present after treatment with EERI

CC1(C)C(N(O)C(=O)Nc2ccc(C(F)(F)F)cc2)N(c2ccc(Cl)cc2)C(=O)N1CC(=O)N/N=C/C=C/c1ccc([N+](=O)[O-])o1 (stereo not shown) [CBU-003]
number of genes up- or down-regulated by at least 2-fold by both EerI and 5-NA [11]: 29 genes | number of genes up- or down-regulated by at least 2-fold only by this compound [11]: 25 genes | requirement of NOXA for cytotoxicity [6]: Noxa is equally required | Kd [14]: 5 to 10 µM | location of slow migrating (oligomerized) p97 species induced by compound [15]: primarily in the membrane fraction, not in the cytosol fraction | stabilization of ERAD substrate TCRα-YFP [7]: stabilize the ERAD substrate TCRα-YFP in polyubiquitinated forms | effect on p97 ATPase activity [16]: No effect | sensitivity of PBMC compared with CLL cells [8]: PBMC are less sensitive | sensitivity of p97 to limited trypsin digestion [17]: caused a delay in the proteolysis of two p97 fragments by trypsin | stabilization of soluble p97 substrate GFPμ [9]: stabilize the soluble p97 substrate GFPμ in polyubiquitinated forms | IC50 ([13]; JEKO-1 cells, incubated 2 days, MTT, four parameter logistic fit): 3.5 µM | expression level of ATF3, ATF4 and NOXA ([10]; 10 μM): comparable to that present after treatment with EERI
